In ChEMBL document CHEMBL5046265, “Synthesis of Hemiprotonic Phenanthroline-Phenanthroline+ Compounds with both Antitumor and Antimicrobial Activity” (J Med Chem, 2022):
Activity calls are given as the source filed them.

What was measured:
Assay type in all cases: functional, organism-based
Conditions in all cases: time 9.0 day
Mus musculus [1] = assay: Anti-Cryptococcal activity against Cryptococcus neoformans infected pneumonia and encephalitis C57BL/6J mouse model assessed as increase in body weight at 8 mg/kg, iv administered once a day for 9 days
Mus musculus [2] = assay: Anti-Cryptococcal activity against Cryptococcus neoformans infected pneumonia and encephalitis C57BL/6J mouse model assessed as improvement in clinical symptoms at 8 mg/kg, iv administered once a day for 9 days
Mus musculus [3] = assay: Anti-Cryptococcal activity against Cryptococcus neoformans infected pneumonia and encephalitis C57BL/6J mouse model assessed as reduction in pneumonia symptoms at 8 mg/kg, iv administered once a day for 9 days and measured at 24 hrs at last post-dosage
Mus musculus [4] = assay: Anti-Cryptococcal activity against Cryptococcus neoformans infected pneumonia and encephalitis C57BL/6J mouse model assessed as reduction in brain edema at 8 mg/kg, iv administered once a day for 9 days and measured at 24 hrs at last post-dosage

Measured: Activity

OC(Cn1cncn1)(Cn1cncn1)c1ccc(F)cc1F
active: all assays above
